Results from patent US7476509B2, “Compounds and methods for modulating functions of nonclassical cadherins” (Adherex Technologies Inc., priority 2002, dated 2009).

System: SKOV3 human ovarian cancer cells
Assay: Effects of ADH358 on confluent cultures of SKOV3 cells (disruption of cell adhesion, microscopic examination)
Format: cell-based
Settings: 1 mg/ml of culture medium, 24 hours of treatment
Experimental: We investigated the effects of the linear peptide ADH358 (H-RWAPIP-NH2 (SEQ ID NO: 2); Desmocollin derived peptide) on confluent cultures of SKOV3 cells. SKOV3 human ovarian cancer cells express desmosomes (which are composed of desmocollins and desmogleins). SKOV3 human ovarian cancer cells were obtained from Dr. Riaz Farookhi, McGill University, Montreal, Canada. The cells were cultured in minimum essential medium (MEM) supplemented with 10% fetal calf serum, non-essential amino acids, fungizone, penicillin-streptomycin, and gentamicin in a humidified atmosphere (5% CO2) at 37° C. All culture reagents were purchased from GIBCO (Burlington, ON). ADH358 (1 mg/ml of culture medium) was added to confluent cultures of SKOV3 cells. After 24 hours of treatment, the cells were fixed with 4% paraformaldehyde, followed by 3 washes with phosphate buffered saline, and then stained with hematoxylin. Control cultures were grown in the absence of peptide.

H-RWAPIP-NH2 [ADH358]
cell morphology / cell-cell attachment of SKOV3 cells: detach from one another and adopt an elongated, fibroblast-like morphology | effect on confluent SKOV3 monolayers (cell adhesion) (hematoxylin stain, vs control cultures without peptide): disruption of the confluent SKOV3 monolayers
